Test results reported in ChEMBL document CHEMBL1201862, “PubChem BioAssay data set” (2004).
The source made the active and inactive calls.

Columns and labels:
[1] = target: T1, Heat shock factor protein 1 (Mus musculus, UniProt P38532); assay: inhibition of MG132-induced HSE-luciferase signal, confirmation, cell-based, NIH3T3, luminescence, dose retest (AID 2382); assay type: functional;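 further: NIH3T3 fibroblasts with HSF1-driven luciferase reporter stressed by proteasome inhibitor MG132; luminescence from HSF1-driven luciferase expression after 8 hours of MG132 stress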
T1 sequence (P38532 whole entry): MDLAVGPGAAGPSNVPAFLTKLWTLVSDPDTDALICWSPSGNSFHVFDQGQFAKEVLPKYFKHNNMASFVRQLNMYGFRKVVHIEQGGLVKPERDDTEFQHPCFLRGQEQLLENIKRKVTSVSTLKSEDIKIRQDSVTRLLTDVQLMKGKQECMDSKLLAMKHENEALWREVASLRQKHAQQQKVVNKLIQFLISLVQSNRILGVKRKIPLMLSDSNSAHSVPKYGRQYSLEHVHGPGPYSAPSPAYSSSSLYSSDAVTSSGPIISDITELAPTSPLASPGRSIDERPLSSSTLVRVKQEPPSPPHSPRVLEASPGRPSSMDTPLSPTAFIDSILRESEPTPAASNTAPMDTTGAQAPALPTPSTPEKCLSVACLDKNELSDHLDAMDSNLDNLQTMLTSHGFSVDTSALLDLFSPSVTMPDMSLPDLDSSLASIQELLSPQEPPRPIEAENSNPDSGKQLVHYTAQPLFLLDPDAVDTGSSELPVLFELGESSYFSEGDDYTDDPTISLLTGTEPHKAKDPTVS

[2] = target: T2, Cytochrome P450 1A2 (Homo sapiens, UniProt P05177);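 further: PubChem cytochrome P450 panel assay, CYP1A2 panel member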
T2 sequence (P05177 whole entry): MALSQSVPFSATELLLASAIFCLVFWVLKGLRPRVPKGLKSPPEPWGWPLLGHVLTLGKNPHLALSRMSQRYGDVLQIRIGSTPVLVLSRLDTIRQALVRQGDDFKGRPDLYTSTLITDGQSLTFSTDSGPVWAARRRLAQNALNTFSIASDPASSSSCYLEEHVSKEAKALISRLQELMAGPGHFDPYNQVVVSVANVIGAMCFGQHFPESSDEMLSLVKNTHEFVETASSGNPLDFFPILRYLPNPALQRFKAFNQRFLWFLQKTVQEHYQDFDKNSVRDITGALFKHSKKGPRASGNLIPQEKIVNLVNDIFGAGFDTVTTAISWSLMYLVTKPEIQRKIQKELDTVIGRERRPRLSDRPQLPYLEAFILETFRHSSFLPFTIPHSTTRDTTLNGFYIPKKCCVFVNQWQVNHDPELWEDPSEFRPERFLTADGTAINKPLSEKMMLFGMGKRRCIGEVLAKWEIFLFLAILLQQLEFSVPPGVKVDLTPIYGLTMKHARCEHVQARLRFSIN

[3] = target: T3, Corticotropin-releasing factor receptor 2/Corticotropin-releasing factor-binding protein (Homo sapiens, UniProt P24387+Q13324); assay: activators of CRF receptor 2 with binding protein – uHTS hits, confirmation (AID 602473); assay type: functional; details: read-out: EC50_Mean
T3 sequence (Q13324 whole entry): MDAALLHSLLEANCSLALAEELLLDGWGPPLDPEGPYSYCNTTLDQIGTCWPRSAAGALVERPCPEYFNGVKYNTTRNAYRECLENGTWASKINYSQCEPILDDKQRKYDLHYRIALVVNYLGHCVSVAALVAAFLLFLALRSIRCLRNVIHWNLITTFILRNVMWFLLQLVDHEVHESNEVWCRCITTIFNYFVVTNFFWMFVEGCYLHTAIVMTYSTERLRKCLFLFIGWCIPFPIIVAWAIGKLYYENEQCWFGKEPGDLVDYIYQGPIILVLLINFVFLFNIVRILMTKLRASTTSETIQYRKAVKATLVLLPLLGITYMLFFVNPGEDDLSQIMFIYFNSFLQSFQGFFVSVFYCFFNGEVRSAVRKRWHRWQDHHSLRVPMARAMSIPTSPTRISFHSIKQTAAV
T3 sequence (P24387 whole entry): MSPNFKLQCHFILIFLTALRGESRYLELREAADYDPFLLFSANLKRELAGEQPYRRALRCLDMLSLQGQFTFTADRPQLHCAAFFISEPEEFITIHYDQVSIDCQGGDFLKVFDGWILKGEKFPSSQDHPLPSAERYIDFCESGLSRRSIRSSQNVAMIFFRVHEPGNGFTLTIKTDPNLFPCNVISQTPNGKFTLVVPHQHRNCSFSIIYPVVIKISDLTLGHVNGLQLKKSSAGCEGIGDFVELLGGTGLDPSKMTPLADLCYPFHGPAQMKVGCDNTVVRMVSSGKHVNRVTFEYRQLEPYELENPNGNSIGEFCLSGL

[4] = target: Cytochrome P450 2C9 (Homo sapiens, UniProt P11712)
Sequence of Cytochrome P450 2C9 (P11712 whole entry): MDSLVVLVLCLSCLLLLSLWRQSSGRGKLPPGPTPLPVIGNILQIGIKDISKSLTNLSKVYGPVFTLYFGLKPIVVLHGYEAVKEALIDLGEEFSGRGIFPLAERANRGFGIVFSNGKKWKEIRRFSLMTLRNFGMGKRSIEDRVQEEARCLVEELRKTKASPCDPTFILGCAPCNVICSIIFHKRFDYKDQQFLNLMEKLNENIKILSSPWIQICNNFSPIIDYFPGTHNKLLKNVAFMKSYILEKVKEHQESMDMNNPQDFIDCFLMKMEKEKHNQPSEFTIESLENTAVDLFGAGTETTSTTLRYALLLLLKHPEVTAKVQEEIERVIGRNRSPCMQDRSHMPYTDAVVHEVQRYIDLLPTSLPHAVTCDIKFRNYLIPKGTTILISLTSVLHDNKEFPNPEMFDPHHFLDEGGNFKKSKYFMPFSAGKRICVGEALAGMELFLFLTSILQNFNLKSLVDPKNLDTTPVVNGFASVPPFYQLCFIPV

[5] = tested on: Streptococcus sp. 'group A'; assay: growth inhibition of control SK(-) GAS strain, dose response, counter-screen for streptokinase expression inhibitor project, luminescence, kanamycin, BacTiterGlo, confirmation (AID 1900); assay type: functional, organism-based
[6] = tested on: Streptococcus; assay: Group A Streptococcus viability loss, dose response, counter-screen for streptokinase expression inhibitor project, luminescence, BacTiterGlo (AID 1915); assay type: functional, organism-based;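 further: potency for reduction of bacterial viability or growth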
[7] = target: T4, Streptokinase A (Streptococcus pyogenes serotype M1, UniProt P10520); assay: S. pyogenes streptokinase expression inhibitors, potency, dose response, plasminogen activation absorbance, OD405 (AID 1914); assay type: functional, Streptococcus pyogenes M1 GAS;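 further: secreted streptokinase activity via plasminogen activation per viability signal from cell pellet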
T4 sequence (P10520 whole entry): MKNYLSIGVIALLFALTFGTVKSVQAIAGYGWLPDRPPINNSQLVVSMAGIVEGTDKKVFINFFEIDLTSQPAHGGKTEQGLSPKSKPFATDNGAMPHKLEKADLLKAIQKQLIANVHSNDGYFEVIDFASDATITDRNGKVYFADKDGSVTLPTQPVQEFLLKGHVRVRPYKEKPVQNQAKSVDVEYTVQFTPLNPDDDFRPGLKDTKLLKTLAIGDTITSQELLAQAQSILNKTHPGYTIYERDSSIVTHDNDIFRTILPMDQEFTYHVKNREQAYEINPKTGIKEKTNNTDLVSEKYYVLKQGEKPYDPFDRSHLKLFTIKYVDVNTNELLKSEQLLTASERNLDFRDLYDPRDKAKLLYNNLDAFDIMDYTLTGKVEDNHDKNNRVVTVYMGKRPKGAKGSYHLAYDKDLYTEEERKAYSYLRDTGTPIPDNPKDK

[8] = inhibitors of firefly luciferase expression or activity, dose response, H4 neuroglioma cells, luminescence (AID 1990); assay type: functional, cell-based
[9] = inhibitors of SNCA 5'UTR-driven reporter translation, confirmation, H4 neuroglioma cells, luminescence (AID 1988); assay type: functional, cell-based
[10] = Luminescence Cell-Based Dose Response HTS to Identify Inhibitors of 5'UTR Stem-Loop Driven Prion Protein mRNA Translation in H4 Neuroglioblastoma Cells. [Related pubchem assays: 1827 (Project Summary), 1813 (Primary HTS)]; assay type: functional
[11] = target: Paired box protein Pax-8 (Homo sapiens, UniProt Q06710); assay: inhibitors of PAX8-driven TPO luciferase reporter, dose response, RMG-I cells, cherry-pick (AID 687027); assay type: functional, cell-based;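 further: luciferase reporter driven by Pax8 target thyroperoxidase promoter measured by SteadyGlo luminescence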
Sequence of Paired box protein Pax-8 (Q06710 whole entry): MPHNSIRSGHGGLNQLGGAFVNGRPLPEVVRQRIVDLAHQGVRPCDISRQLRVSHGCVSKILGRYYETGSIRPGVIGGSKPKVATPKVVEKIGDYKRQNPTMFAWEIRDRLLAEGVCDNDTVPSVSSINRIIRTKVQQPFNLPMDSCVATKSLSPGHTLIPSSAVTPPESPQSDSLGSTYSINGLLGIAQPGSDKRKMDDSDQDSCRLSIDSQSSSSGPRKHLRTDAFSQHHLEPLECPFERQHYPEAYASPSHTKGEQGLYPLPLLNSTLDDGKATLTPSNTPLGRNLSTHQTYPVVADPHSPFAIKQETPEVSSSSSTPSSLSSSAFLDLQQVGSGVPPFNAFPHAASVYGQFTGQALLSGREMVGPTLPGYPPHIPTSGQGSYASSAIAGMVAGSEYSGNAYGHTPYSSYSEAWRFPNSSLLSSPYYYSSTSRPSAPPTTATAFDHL

[12] = target: Cytochrome P450 3A4 (Homo sapiens, UniProt P08684);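 further: CYP3A4 tested as one member of a cytochrome P450 panel screen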
Sequence of Cytochrome P450 3A4 (P08684 whole entry): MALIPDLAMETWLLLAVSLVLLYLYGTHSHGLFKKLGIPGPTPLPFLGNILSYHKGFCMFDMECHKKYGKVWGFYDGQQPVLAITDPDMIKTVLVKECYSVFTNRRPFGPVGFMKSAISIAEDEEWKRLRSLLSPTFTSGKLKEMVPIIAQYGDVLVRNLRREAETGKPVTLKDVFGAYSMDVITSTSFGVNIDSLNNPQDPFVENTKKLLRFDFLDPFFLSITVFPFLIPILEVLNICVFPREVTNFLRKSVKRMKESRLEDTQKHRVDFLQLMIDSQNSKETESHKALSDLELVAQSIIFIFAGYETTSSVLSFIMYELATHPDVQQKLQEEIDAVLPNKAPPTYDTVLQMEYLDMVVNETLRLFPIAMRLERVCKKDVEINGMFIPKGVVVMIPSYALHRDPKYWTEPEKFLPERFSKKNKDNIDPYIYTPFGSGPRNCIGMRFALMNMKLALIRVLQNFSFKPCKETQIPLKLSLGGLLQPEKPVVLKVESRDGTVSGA

[13] = target: Cytochrome P450 2C19 (Homo sapiens, UniProt P33261); assay: Cytochrome panel assay with activity outcomes. Panel member name: p450-cyp2c19 Compounds with AC50 equal or less than 10 uM are considered active; assay type: functional; details: read-out: AC50
Sequence of Cytochrome P450 2C19 (P33261 whole entry): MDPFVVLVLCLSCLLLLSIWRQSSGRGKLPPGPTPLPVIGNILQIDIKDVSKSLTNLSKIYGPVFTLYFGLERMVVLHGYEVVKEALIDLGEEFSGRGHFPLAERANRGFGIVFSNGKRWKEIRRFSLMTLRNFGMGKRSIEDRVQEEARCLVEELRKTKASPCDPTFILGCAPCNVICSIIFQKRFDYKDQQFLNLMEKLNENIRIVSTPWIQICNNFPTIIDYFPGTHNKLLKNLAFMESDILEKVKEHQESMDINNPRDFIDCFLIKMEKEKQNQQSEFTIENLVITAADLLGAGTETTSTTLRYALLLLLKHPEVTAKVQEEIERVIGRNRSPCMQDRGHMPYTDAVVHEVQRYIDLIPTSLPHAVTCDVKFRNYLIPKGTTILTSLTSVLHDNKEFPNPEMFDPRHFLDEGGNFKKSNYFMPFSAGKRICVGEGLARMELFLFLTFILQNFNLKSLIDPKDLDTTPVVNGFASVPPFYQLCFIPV

## O=C(Nc1nncs1)c1ccc(F)c(S(=O)(=O)N2CCCCC2)c1
[1]
  EC50: 39.5 µM (active)

## O=C(Nc1cccc(Cl)c1)c1ccc(S(=O)(=O)NCC2CCCO2)cc1 (centres undefined)
[1]
  EC50: > 195 µM (not active)

## COc1ccc2nc(N3C(=O)CC(Cc4ccc(Cl)cc4)C3=O)sc2c1 (centres undefined)
[2]
  AC50: 2.24 µM (inconclusive)

## Cc1ccc(-n2c(C)cc(C(=O)CN3C(=O)C(=O)N(C4CCCC4)C3=O)c2C)cc1
[3]
  EC50: > 53 µM (inactive)

## CC1CCC(C(C)C)C(OCC(O)CN2CCN(Cc3ccccc3)CC2)C1 (centres undefined)
[4]
  AC50: 1.41 µM (inconclusive)
[2]
  AC50: 12.6 µM (inconclusive)

## CCOC(=O)C(O)(c1ccc(NC(=S)NC(=O)c2ccc(Cl)cc2Cl)cc1)C(F)(F)F (centres undefined)
[3]
  EC50: 15.9 µM (active)

## Cc1cc(NC(=O)CN2C(=O)NC(C)(c3ccc(OC(F)F)cc3)C2=O)no1 (centres undefined)
[3]
  EC50: 14.4 µM (active)

## Cc1noc(C)c1C(=O)Nc1nccs1
[5]
  EC50: > 150 µM (not active)
[6]
  EC50: > 150 µM (not active)
[7]
  EC50: > 150 µM (not active)

## O=C(O)C1CCC(=O)N(C2CCCCC2)C1c1ccccc1Cl (centres undefined)
[1]
  EC50: > 195 µM (not active)

## CCOC(=O)c1cc2occc2n1CC(=O)N1CCCc2ccccc21
[1]
  EC50: > 195 µM (not active)

## Cc1cccc(N2CCN(Cc3nc(-c4ccccc4Cl)oc3C)CC2)n1
[1]
  EC50: > 195 µM (not active)

## Cc1cc2c3c(ccc(C)c3n1)N=CN2c1ccccc1
[8]
  EC50: 12.3 µM (active)
[9]
  EC50: 119 µM (active)
[10]
  EC50: 23.3 µM (active)

## CCc1cccc(CC)c1N1C(=O)C2=C(SCCCS2)C1=O
[3]
  EC50: 6.9 µM (active)

## Cc1ccc(S(=O)(=O)Nc2ccc3c(c2)C(=O)N([C@@H](C)CO)C[C@@H](C)[C@@H](CN(C)Cc2ccc(Cl)c(Cl)c2)OCCCC[C@@H](C)O3)cc1
[11]
  AC50: 9.18 µM (active)

## C[C@@H]1CCCCO[C@H](CN(C)C(=O)Nc2ccc(C(F)(F)F)cc2)[C@@H](C)CN([C@@H](C)CO)C(=O)c2cc(NC(=O)Nc3ccccc3)ccc2O1
[11]
  AC50: 1.89 µM (active)

## C[C@@H]1CN([C@@H](C)CO)C(=O)Cc2cc(NC(=O)C3CC3)ccc2O[C@H]1CN(C)Cc1ccc(-c2ccccc2)cc1
[11]
  AC50: 18.9 µM (active)

## Sc1nnc(C2CCCCC2)n1/N=C/c1c(Cl)cccc1Cl
[5]
  EC50: 10.1 µM (active)
[6]
  EC50: 71.9 µM (active)
[7]
  EC50: > 150 µM (not active)

## COc1ccc(/C(C)=N/NC(=O)c2ccc(N(C)C)cc2)cc1
[2]
  AC50: 10 µM (inconclusive)

## Cc1ccc(/C=N/n2cnnc2)s1
[12]
  AC50: 15.8 µM (inconclusive)
[4]
  AC50: 14.1 µM (inconclusive)
[13]
  AC50: 11.2 µM (inconclusive)
[2]
  AC50: 22.4 µM (inconclusive)
